Laboratory results published in PubChem BioAssay AID248 (DTP/NCI, 2004).
Several values for one entry are separate records, joined by “and”; a condition that tells them apart may be missing. Identical values can stand only once. Inconclusive results and toxic doses are left out. Cut-off read from the data, not from the text of the source: active = T/C of 150% or more; inactive = T/C below 125%.

Tested on: L1210 leukemia ip in BDF1 mice, survival T/C
Assay: NCI In Vivo Anticancer Drug Screen. Data for tumor model L1210 Leukemia (intraperitoneal) in B6D2F1 (BDF1) mice
Settings: endpoint: mean survival time, higher = longer survival
Summary of the method: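 Read-out is survival time, reported as the treated-group measurement over the vehicle-control measurement.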

[1] = dose: 50.0 mg/kg/injection, schedule: Q04DX003 (ip), vehicle: saline with Tween-80
[2] = dose: 100.0 mg/kg/injection, schedule: Q04DX003 (ip), vehicle: saline with Tween-80
[3] = dose: 100.0 mg/kg/injection, schedule: Q04DX003 (ip), vehicle: Klucel (hydroxypropylcellulose) (HPC)
[4] = dose: 200.0 mg/kg/injection, schedule: Q04DX003 (ip), vehicle: Klucel (hydroxypropylcellulose) (HPC)
[5] = dose: 50.0 mg/kg/injection, schedule: Q01DX001 (ip), vehicle: carboxymethylcellulose (CMC)
[6] = dose: 100.0 mg/kg/injection, schedule: Q01DX001 (ip), vehicle: carboxymethylcellulose (CMC)
[7] = dose: 200.0 mg/kg/injection, schedule: Q01DX001 (ip), vehicle: carboxymethylcellulose (CMC)
[8] = dose: 400.0 mg/kg/injection, schedule: Q01DX001 (ip), vehicle: carboxymethylcellulose (CMC)
[9] = dose: 100.0 mg/kg/injection, schedule: Q01DX009 (ip), vehicle: saline with Tween-80
[10] = dose: 200.0 mg/kg/injection, schedule: Q01DX009 (ip), vehicle: saline with Tween-80
[11] = dose: 200.0 mg/kg/injection, schedule: Q04DX003 (ip), vehicle: saline with Tween-80
[12] = dose: 400.0 mg/kg/injection, schedule: Q01DX009 (ip), vehicle: saline with Tween-80
[13] = dose: 400.0 mg/kg/injection, schedule: Q04DX003 (ip), vehicle: saline with Tween-80
[14] = dose: 100.0 mg/kg/injection, schedule: Q01DX001 (ip), vehicle: saline with Tween-80
[15] = dose: 200.0 mg/kg/injection, schedule: Q01DX001 (ip), vehicle: saline with Tween-80
[16] = dose: 100.0 mg/kg/injection, schedule: Q01DX009 (ip), vehicle: Klucel (hydroxypropylcellulose) (HPC)
[17] = dose: 200.0 mg/kg/injection, schedule: Q01DX009 (ip), vehicle: Klucel (hydroxypropylcellulose) (HPC)
[18] = dose: 400.0 mg/kg/injection, schedule: Q01DX009 (ip), vehicle: Klucel (hydroxypropylcellulose) (HPC)
[19] = dose: 100.0 mg/kg/injection, schedule: Q01DX001 (ip), vehicle: Klucel (hydroxypropylcellulose) (HPC)
[20] = dose: 200.0 mg/kg/injection, schedule: Q01DX001 (ip), vehicle: Klucel (hydroxypropylcellulose) (HPC)

Measured: T/C

CCCC[N+](C)(C)CCCOC(=O)C1C2CC3OC(=O)C1C3C2 (stereo not drawn)
inactive: dose: 12.5 mg/kg/injection, schedule: Q01DX003 (ip), vehicle: saline with Tween-80 97 % of control | dose: 25.0 mg/kg/injection, schedule: Q01DX003 (ip), vehicle: saline with Tween-80 100 % of control | dose: 50.0 mg/kg/injection, schedule: Q01DX003 (ip), vehicle: saline with Tween-80 97 % of control | [1] 101 % of control | [2] 103 % of control

COc1ccc(C(=O)NCCc2ccccc2)cc1
inactive: [3] 96 % of control | [4] 105 % of control | dose: 400.0 mg/kg/injection, schedule: Q04DX003 (ip), vehicle: Klucel (hydroxypropylcellulose) (HPC) 104 % of control

CCOC(=O)NC1CC2CCC1C2 (stereo not drawn)
inactive: [5] 110 % of control | [6] 103 % of control | [7] 103 % of control | [8] 103 % of control

CNC(=O)Oc1ccc(C=Nc2cccc(Cl)c2)cc1
inactive: dose: 100.0 mg/kg/injection, schedule: Q04DX002 (ip), vehicle: Klucel (hydroxypropylcellulose) (HPC) 98 % of control | dose: 200.0 mg/kg/injection, schedule: Q04DX002 (ip), vehicle: Klucel (hydroxypropylcellulose) (HPC) 98 % of control | dose: 400.0 mg/kg/injection, schedule: Q04DX002 (ip), vehicle: Klucel (hydroxypropylcellulose) (HPC) 98 % of control

N=C(N)SC/C=C/CSC(=N)N
inactive: dose: 25.0 mg/kg/injection, schedule: Q04DX003 (ip), vehicle: saline 106 % of control | dose: 50.0 mg/kg/injection, schedule: Q04DX003 (ip), vehicle: saline 96 % of control | dose: 100.0 mg/kg/injection, schedule: Q04DX003 (ip), vehicle: saline 103 % of control and 88 % of control

Cc1cc(NC(=O)Nc2ccccc2C)no1
inactive: [9] 89 % of control | [2] 97 % of control | [10] 93 % of control | [11] 101 % of control | [12] 91 % of control | [13] 97 % of control

Cc1c(C(=O)c2ccccc2)c2ccccc2n1C
inactive: [5] 96 % of control | [6] 91 % of control | [7] 93 % of control | [8] 93 % of control

COP(=O)(NNc1cc(Cl)ccc1Cl)OC
inactive: [2] 104 % of control | [11] 106 % of control | [13] 101 % of control

O=CNc1ccc(Cl)cc1
inactive: dose: 25.0 mg/kg/injection, schedule: Q04DX003 (ip), vehicle: Klucel (hydroxypropylcellulose) (HPC) 92 % of control | dose: 50.0 mg/kg/injection, schedule: Q04DX003 (ip), vehicle: Klucel (hydroxypropylcellulose) (HPC) 92 % of control | [3] 87 % of control | [4] 97 % of control

CCN(CC)CCC(=O)OC
inactive: dose: 50.0 mg/kg/injection, schedule: Q01DX001 (ip), vehicle: saline 97 % of control | dose: 100.0 mg/kg/injection, schedule: Q01DX001 (ip), vehicle: saline 100 % of control | dose: 200.0 mg/kg/injection, schedule: Q01DX001 (ip), vehicle: saline 100 % of control | dose: 400.0 mg/kg/injection, schedule: Q01DX001 (ip), vehicle: saline 97 % of control

CCOC(=O)CN(c1ccccc1C(=O)OC)S(=O)(=O)c1ccc(C)cc1
inactive: [6] 112 % of control | [7] 114 % of control | [8] 107 % of control

CSc1nc(N)nc2nc(C)cc(C)c12
inactive: dose: 100.0 mg/kg/injection, schedule: Q01DX Z (ip), vehicle: methylcellulose (MC) 110 % of control

Clc1cc2c(c3c1CONC3)OCO2
inactive: [2] 92 % of control | [11] 90 % of control | [13] 100 % of control

CN(Cc1cnc2nc(N)nc(N)c2n1)c1ccc(C(=O)NC(CCC(=O)OC(C)(C)C)C(=O)OC(C)(C)C)cc1 (stereo not drawn)
active: [3] 159 % of control
inactive: dose: 25.0 mg/kg/injection, schedule: Q01DX009 (ip), vehicle: Klucel (hydroxypropylcellulose) (HPC) 124 % of control | dose: 50.0 mg/kg/injection, schedule: Q01DX009 (ip), vehicle: Klucel (hydroxypropylcellulose) (HPC) 88 % of control

CC(C)CCCC(C)CCC1C(=O)NC(=O)NC1=O (stereo not drawn)
inactive: dose: 75.0 mg/kg/injection, schedule: Q01DX001 (ip), vehicle: saline 90 % of control | dose: 150.0 mg/kg/injection, schedule: Q01DX001 (ip), vehicle: saline 88 % of control

O=C(O)C1CC2CCC1C2 (stereo not drawn)
inactive: dose: 100.0 mg/kg/injection, schedule: Q01DX009 (ip), vehicle: saline 100 % of control | dose: 200.0 mg/kg/injection, schedule: Q01DX009 (ip), vehicle: saline 104 % of control | dose: 400.0 mg/kg/injection, schedule: Q01DX009 (ip), vehicle: saline 92 % of control

O=CNc1ccc2c(c1)Cc1cc(Cl)ccc1-2
inactive: dose: 30.0 mg/kg/injection, schedule: Q01DX015 (ip), vehicle: carboxymethylcellulose (CMC) 97 % of control | dose: 60.0 mg/kg/injection, schedule: Q01DX015 (ip), vehicle: carboxymethylcellulose (CMC) 106 % of control | dose: 120.0 mg/kg/injection, schedule: Q01DX015 (ip), vehicle: carboxymethylcellulose (CMC) 97 % of control

NC(=O)c1[nH]c(CCCc2ccccc2)nc1N
inactive: dose: 50.0 mg/kg/injection, schedule: Q01DX009 (ip), vehicle: saline with Tween-80 102 % of control | [1] 103 % of control | [14] 110 % of control | [9] 90 % of control | [2] 109 % of control | [15] 100 % of control | [10] 102 % of control | [11] 100 % of control

CCCCNS(=O)(=O)c1ccc(OC)c(N)c1
inactive: [16] 98 % of control | [17] 104 % of control | [18] 97 % of control

CCCc1nc2ccccc2c(=O)n1/N=C/c1ccc(Cl)cc1
inactive: [16] 98 % of control | [17] 88 % of control | [18] 93 % of control

O=C1/C(=C\c2ccccc2)Sc2cc[nH]c21
inactive: [19] 96 % of control | [20] 105 % of control | dose: 400.0 mg/kg/injection, schedule: Q01DX001 (ip), vehicle: Klucel (hydroxypropylcellulose) (HPC) 96 % of control

CCOC(=O)COc1cc(Cl)c(Cl)cc1Cl
inactive: dose: 75.0 mg/kg/injection, schedule: Q01DX009 (ip), vehicle: gum acacia 110 % of control | dose: 100.0 mg/kg/injection, schedule: Q04DX002 (ip), vehicle: gum acacia 100 % of control | dose: 200.0 mg/kg/injection, schedule: Q04DX002 (ip), vehicle: gum acacia 118 % of control | dose: 400.0 mg/kg/injection, schedule: Q04DX002 (ip), vehicle: gum acacia 92 % of control

O=C(O)COc1ccc(Cl)cc1CC(=O)O
inactive: dose: 50.0 mg/kg/injection, schedule: Q04DX002 (ip), vehicle: saline with Tween-80 99 % of control | dose: 100.0 mg/kg/injection, schedule: Q04DX002 (ip), vehicle: saline with Tween-80 100 % of control and 105 % of control | dose: 200.0 mg/kg/injection, schedule: Q04DX002 (ip), vehicle: saline with Tween-80 99 % of control and 103 % of control | dose: 400.0 mg/kg/injection, schedule: Q04DX002 (ip), vehicle: saline with Tween-80 103 % of control

CC(C)CCOC(=O)C(Br)c1ccccc1 (stereo not drawn)
inactive: [9] 95 % of control | [2] 104 % of control | [10] 88 % of control | [11] 99 % of control | [12] 88 % of control | [13] 95 % of control

O=Cc1[nH]c(=S)[nH]c(=O)c1Cc1ccc(Br)cc1
inactive: [14] 106 % of control | [9] 94 % of control | [15] 98 % of control | [10] 91 % of control | dose: 400.0 mg/kg/injection, schedule: Q01DX001 (ip), vehicle: saline with Tween-80 98 % of control | [12] 98 % of control

Cc1ccc(S(=O)(=O)OC2COCOC2)cc1
inactive: [9] 110 % of control | [10] 102 % of control | [12] 91 % of control

O=C(O)CCCN1CCCCC1
inactive: dose: 100.0 mg/kg/injection, schedule: Q04DX002 (ip), vehicle: saline 103 % of control | dose: 200.0 mg/kg/injection, schedule: Q04DX002 (ip), vehicle: saline 100 % of control | dose: 400.0 mg/kg/injection, schedule: Q04DX002 (ip), vehicle: saline 100 % of control

NC(=O)c1cn[nH]c1NC(=O)/C=C/c1cccc([N+](=O)[O-])c1
inactive: dose: 50.0 mg/kg/injection, schedule: Q01DX001 (ip), vehicle: Klucel (hydroxypropylcellulose) (HPC) 92 % of control | [19] 96 % of control | [20] 91 % of control
